Test results taken from patent US9770430B2, “Desferrioxamine-metal complexes for the treatment of immune-related disorders” (priority 2009, dated 2017).

Columns and labels:
Format in all cases: in vivo, sand rat (Psammomis obesus)
[1] = system: high energy diet-induced Type II diabetes; assay: Sand rat high energy diet Type II diabetes model, glucose tolerance test and cataract formation (Example 6)
Description: Sand rats (Psammomis Obesus) were used as a model for Type 2 diabetes. The sand rats transferred onto high energy diet develop a severe form of Type 2 diabetes, including high blood glucose level, increase in body weight, and cataract development (eye lens opacification).
The sand rats were divided into groups. The animals from the Group I received the standard diet, serving as a control, whereas animals from the other indicated groups received high energy diet, leading to diabetes development. The high-energy diet ed mice were either untreated, or treated with intra-peritoneal injections of 2.5 mg/kg body weight Ga-DFO, Zn-DFO, DFO alone, Zn, Ga or lipoic acid (LA), either twice or three times per week, as indicated, for the duration of the experiment. The blood glucose and body weight of the animals were monitored throughout the experiment.
Forty two sand rats were divided into seven groups, six animals in each. The animals from Group I received the standard diet and used as a control. The animals from the Groups II, III, IV, V, VI and VII received high energy diet, leading to diabetes development, while Groups III, IV and VII were treated with Zn-DFO, Ga-DFO and DFO alone, respectively. The Groups V and VI received Zn and Ga, in their chloride salt form, alone respectively. Administration of the different treatments was as described, and the experiment lasted for 53 days. Glucose tolerance test was performed at the end of experiment. The cataract formation was tested as well.

[2] = system: salicylate hydroxylation to 2,3-DHBA; assay: 2,3-DHBA assay in blood of high energy diet fed sand rats; conditions: 2.5 mg/kg i.p. three times a week
Protocol: To measure 2,3-DHBA the animals were injected i.p. with 100 mg/kg salicylate in saline buffer. As a product of salicylate hydroxylation, the 2,3-DHBA was quantified using HPLC coupled with electrochemical detection (HPLC-ECD), using a Varian 5000 liquid chromatograph (Varian Analytical Instruments, Walnut Creek, Calif., USA) equipped with a Rheodyne 7125 sample injector (20 μl loop; Rheodyne L. P., Rohnert Park, Calif., USA). The column used for separation of salicylate and DHBA was a 250×4 mm LiChrospher 100RP-18, 5 μm (Merck, Darmstadt, Germany). The chromatograms were recorded using a PC-based data acquisition and processing system (EZChrom Elite, San-Ramon, Calif., USA).
Nineteen sand rats were divided into three groups. Group I (n=4) received a standard diet and was used as a control. Groups II (n=7) and III (n=8) received a high energy diet, leading to diabetes development. Group III was treated with 2.5 mg Zn-DFO i.p. per kg body weight three times a week, while Group II was injected with saline according to the same pattern. After the blood glucose and body weight monitoring for 63 days, glucose tolerance test was performed and blood level of 2,3-DHBA and catechols was also measured. As previously done, cataract formation was tested as well. […] The concentration of actin, Trx and TrxR were measured by Western Blotting, and the activity of Msr was analyzed by HPLC as described.

[3] = system: high energy diet-induced Type II diabetes; assay: Sand rat high energy diet Type II diabetes model, body weight, blood glucose, glucose tolerance, cataract (Example 7)

## CC(=O)N(O)CCCCCNC(=O)CCC(=O)N([O-])CCCCCNC(=O)CCC(=O)N([O-])CCCCCN.[Zn+2] [Zn-DFO, Zinc-desferrioxamine]
[1]; 200 mg glucose per 100 g body weight, end of 53 day experiment, high energy diet
  three hours response to an orally-administered glucose dose, value above the zero (standard diet Group I): 20 mg/dL
[1]; high energy diet (HE) sand rats, 53 days
  Cataract formation: 22%
[2]
  2,3-DHBA blood concentration: maintained almost baseline values
[3]; day 28, high energy diet, 2.5 mg/kg i.p. three times a week
  blood glucose value: 200 mg/dL
[3]; high energy diet, 2.5 mg/kg i.p. three times a week, 63 days
  body weight gain: gained weight moderately
[3]; toward the end of experiment, high energy diet, 2.5 mg/kg i.p. three times a week
  blood glucose value: 110 mg/dL
[3]; treated group (Group III)
  animals that did not develop cataract: four
  animals with grade 1-2 cataract in both eyes: Two
  animals with severe (grade 3) cataract: one
[3]; versus Group I (standard diet)
  glucose tolerance test, integration of total glucose levels: insignificantly higher value than Group I
